From EP0479665A2, “1,4-Dihydropyridine derivatives, method for preparing the same and use thereof” (TEIKOKU CHEMICAL INDUSTRIES CO., LTD., priority 1990, dated 1992)
Where a name gives a salt, the structure may show the parent alone. Read-outs that look alike come from different tables or passages of the source. Marks after values point to notes of the source that are not given here.

Experiments:
[1] = test system: spontaneously hypertensive rats; assay: Antihypertensive action, tail-cuff method, single oral dose; type: in vivo; conditions: difference in blood pressure before and after administration; 10 mg/kg oral; an hour after the administration; two rats
Experimental: Measurement was conducted an hour after the administration. […] The antihypertensive action of each of […] nicardipine was also measured for comparison.

in vivo = conditions: oral, after a fast, 4-week old mouse, read-out: Toxicity (LD50)
Experimental: After a fast, a ddy-mouse (4-week old) was orally given a solution obtained by dissolving and/or suspending the compound in each Example 18, 19 and 20 in dimethylsulfoxide (DMSO) or carboxymethylcellulose (CMC). The value of LD50 was calculated from the mortality.

thoracic aorta = assay: Calcium antagonism: relaxation of thoracic aorta helical strips contracted with hyperpotassium solution; type: cell-based, rabbit; conditions: Oryctolagus cuniculus; concentration for 50 % relaxation; hyperpotassium solution (50 mM); relaxation with 10^-4 M papaverine defined as 100 %; read-out: Measured Value (IC50)
Experimental: A thoracic aorta was removed from a rabbit to obtain a helical strips (width: 3 mm; length: 30 mm). This strip was suspended under a load of 0.5 g in a Magnus tube filled with Krebs-Henseleit solution. Subsequently, the Krebs-Henseleit solution was replaced with hyperpotassium solution (50 mM) to contract the strip. The strip was then left to stand until the contraction was stabilized. Thereafter, the compounds obtained in Examples 18, 19 and 20 and dissolved in ethanol-distilled water were added to the strip.
The concentration (IC50) of each compound required for obtaining relaxation of 50 % was measured. It is to be noted that the relaxation of a strip treated with 10-^4M papaverine was defined to 100 %.

[2] = test system: spontaneously hypertensive rats; assay: Antihypertensive action regarding administration amount, tail-cuff method; type: in vivo; conditions: for ED (40 mmHg decrease): Rattus norvegicus, read-out: ED-40 mmHg; for T1/2(dose): time for recovery to 50 % of maximal effect (index of persistence)
Experimental: Ten spontaneously hypertensive rats (10 - 20 week old) were used for this test. Blood pressure was measured in accordance with tail-cuff method by employing a blood pressure gauge for small animals UR-1000 (manufactured by Ueda Works, Ltd., Japan). […] The amount of each compound required for lowering the blood pressure of 40 mmHg decrease in blood pressure was calculated from the relationship between the administration amount and the blood pressure after adiministration (lowermost blood pressure). This amount was defined as ED-40 mmHg for serving as an index of antihypertensive action. Tz was shown as the time required for recovery to 50 % of maximal […]. This value was used for an index of persistence.

[3] = oral amount for a 40 mmHg decrease in blood pressure, suspended in 0.5 % carboxymethylcellulose, ten rats

CC1=C(C(=O)OCC2(CN(C)C)CCCCC2)C(c2cccc([N+](=O)[O-])c2)C(C(=O)OC(C)C)=C(C)N1 (racemic) [Example 5]
Antihypertensive Action [1]: -68 mmHg

1,4-dihydro-2,6-dimethyl-4-(3'-nitrophenyl)-3,5-pyridinedicarboxylic acid methyl (1-piperidinylmethylcyclohexyl)methyl ester hydrochloride [Example 2]
Antihypertensive Action [1]: -89 mmHg

CCOC(=O)C1=C(C)NC(C)=C(C(=O)OCC2(CN(C)C)CCCCC2)C1c1cccc([N+](=O)[O-])c1 (racemic) [Example 7]
Antihypertensive Action [1]: -61 mmHg

COC(=O)C1=C(C)NC(C)=C(C(=O)OCC2(CN(C)Cc3ccccc3)CCCCC2)C1c1cccc([N+](=O)[O-])c1.Cl (single isomer, unassigned; (+)) [Example 18, (+)-1,4-dihydro-2,6-dimethyl-4-(3'-nitro-phenyl)-3,5-pyridinedicarboxylic acid 1-(N-benzyl-N-methylaminomethyl)cyclohexylmethyl methyl ester hydrochloride]
Antihypertensive Action [1]: -96 mmHg
LD50 (in vivo; medium DMSO): 130 mg/kg
IC50 (thoracic aorta): 0.1 µM
ED (40 mmHg decrease) [2, 3]: 0.7 mg/kg
T1/2(dose) ([2]; oral dose 3 mg/kg): >6.0 hr(3 mg/kg)*

COC(=O)C1=C(C)NC(C)=C(C(=O)OCC2(CN3CCCCC3)CCCCC2)C1c1cccc([N+](=O)[O-])c1 (single isomer, unassigned; (+)) [Example 19, (+)-1,4-dihydro-2,6-dimethyl-4-(3'-nitro-phenyl)-3,5-pyridinedicarboxylic acid methyl (1-piperidinylmethylcyclohexyl)methyl ester hydrochloride]
Antihypertensive Action [1]: -75 mmHg
LD50 (in vivo; medium DMSO): 100 mg/kg
IC50 (thoracic aorta): 0.0015 µM
ED (40 mmHg decrease) [2, 3]: 0.5 mg/kg
T1/2(dose) ([2]; oral dose 3 mg/kg): >6.0 hr(3 mg/kg)*

COC(=O)C1=C(C)NC(C)=C(C(=O)OCC2(CN3CCN(C)CC3)CCCCC2)C1c1cccc([N+](=O)[O-])c1 (single isomer, unassigned) [Example 24]
Antihypertensive Action [1]: -79 mmHg

CCN(CC)CC1(COC(=O)C2=C(C)NC(C)=C(C(=O)OC)C2c2cccc([N+](=O)[O-])c2)CCCCC1 (racemic) [Example 13]
Antihypertensive Action [1]: -108 mmHg

COC(=O)C1=C(C)NC(C)=C(C(=O)OCC2(CN(C)C)CCCCC2)C1c1cccc([N+](=O)[O-])c1 (single isomer, unassigned) [Example 21]
Antihypertensive Action [1]: -53 mmHg

COC(=O)C1=C(C)NC(C)=C(C(=O)OCC2(CN3CCN(Cc4ccccc4)CC3)CCCCC2)C1c1cccc([N+](=O)[O-])c1 (single isomer, unassigned) [Example 25]
Antihypertensive Action [1]: -98 mmHg

COC(=O)C1=C(C)NC(C)=C(C(=O)OCC2(CN(C)Cc3ccc(F)cc3)CCCCC2)C1c1cccc([N+](=O)[O-])c1 (single isomer, unassigned) [Example 26]
Antihypertensive Action [1]: -111 mmHg

COC(=O)C1=C(C)NC(C)=C(C(=O)OCC2(CN(C)Cc3ccccc3Cl)CCCCC2)C1c1cccc([N+](=O)[O-])c1 (racemic) [Example 16]
Antihypertensive Action [1]: -120 mmHg

COC(=O)C1=C(C)NC(C)=C(C(=O)OCC2(CN3CCN(c4ccccc4)CC3)CCCCC2)C1c1cccc([N+](=O)[O-])c1 (single isomer, unassigned; (+)) [Example 20, (+)-1,4-dihydro-2,6-dimethyl-4-(3'-nitro-phenyl)-3,5-pyridinedicarboxylic acid methyl 1-(4-phenylpiperazinylmethyl)cyclohexylmethyl ester dihydrochloride]
Antihypertensive Action [1]: -129 mmHg
LD50 (in vivo; medium CMC): 290 mg/kg
IC50 (thoracic aorta): 0.42 µM
ED (40 mmHg decrease) [2, 3]: 0.3 mg/kg
T1/2(dose) ([2]; oral dose 1 mg/kg): >6.0 hr(1 mg/kg)*

CCN(Cc1ccccc1)CC1(COC(=O)C2=C(C)NC(C)=C(C(=O)OC)C2c2cccc([N+](=O)[O-])c2)CCCCC1 (single isomer, unassigned) [Example 27]
Antihypertensive Action [1]: -109 mmHg

COC(=O)C1=C(C)NC(C)=C(C(=O)OCC2(CN3CCN(C)CC3)CCCCC2)C1c1cccc([N+](=O)[O-])c1 (racemic) [Example 11]
Antihypertensive Action [1]: -74 mmHg

COC(=O)C1=C(C)NC(C)=C(C(=O)OCCN2CCN(C(c3ccccc3)c3ccccc3)CC2)C1c1cccc([N+](=O)[O-])c1 (stereo not drawn) [Manidipine, reference compound]
LD50 (in vivo; medium CMC): 200 mg/kg
IC50 (thoracic aorta): 0.027 µM
ED (40 mmHg decrease) [2, 3]: 1.7 mg/kg
T1/2(dose) ([2]; oral dose 3 mg/kg): 5.0 hr(3 mg/kg)*

COC(=O)C1=C(C)NC(C)=C(C(=O)OCC2(CN3CCN(C(c4ccccc4)c4ccccc4)CC3)CCCCC2)C1c1cccc([N+](=O)[O-])c1 (racemic) [Example 17]
Antihypertensive Action [1]: -112 mmHg

COC(=O)C1=C(C)NC(C)=C(C(=O)OCC2(CN3CCN(c4ccccc4)CC3)CCCCC2)C1c1cccc([N+](=O)[O-])c1 (racemic) [Example 3, 1,4-dihydro-2,6-dimethyl-4-(3'-nitrophenyl)-3,5-pyridinedicarboxylic acid methyl 1-(4-phenylpiperazinylmethyl)cyclohexylmethyl ester dihydrochloride.1/2 acetone adduct]
Antihypertensive Action [1]: -109 mmHg

COC(=O)C1=C(C)NC(C)=C(C(=O)OCCN(C)Cc2ccccc2)C1c1cccc([N+](=O)[O-])c1 (stereo not drawn) [Nicardipine, nicardipine, reference compound]
Antihypertensive Action [1]: -77 mmHg
LD50 (in vivo; medium DMSO): 190 mg/kg
IC50 (thoracic aorta): 0.0068 µM
ED (40 mmHg decrease) [2, 3]: 2.6 mg/kg
T1/2(dose) ([2]; oral dose 10 mg/kg): 4.5 hr(10mg/kg)*

COC(=O)C1=C(C)NC(C)=C(C(=O)OC)C1c1ccccc1[N+](=O)[O-] [Nifedipine, nifedipine, reference compound]
Antihypertensive Action [1]: -58 mmHg
IC50 (thoracic aorta): 0.029 µM
ED (40 mmHg decrease) ([2]; po): 3.3 mg/kg

CCOC(=O)C1=C(C)NC(C)=C(C(=O)OCC2(CN(C)Cc3ccccc3)CCCCC2)C1c1cccc([N+](=O)[O-])c1 (racemic) [Example 6, 1,4-dihydro-2,6-dimethyl-4-(3'-nitrophenyl)-3,5-pyridinedicarboxylic acid 1-(N-benzyl-N-methylaminomethyl)cyclohexylmethyl ethyl ester]
Antihypertensive Action [1]: -110 mmHg

COC(=O)C1=C(C)NC(C)=C(C(=O)OCC2(CN3CCN(Cc4ccccc4)CC3)CCCCC2)C1c1cccc([N+](=O)[O-])c1 (racemic) [Example 10]
Antihypertensive Action [1]: -110 mmHg

COC(=O)C1=C(C)NC(C)=C(C(=O)OCC2(CN(C)Cc3ccc(Cl)cc3)CCCCC2)C1c1cccc([N+](=O)[O-])c1 (single isomer, unassigned) [Example 22]
Antihypertensive Action [1]: -122 mmHg

COC(=O)C1=C(C)NC(C)=C(C(=O)OCC2(CN3CCOCC3)CCCCC2)C1c1cccc([N+](=O)[O-])c1 (racemic) [Example 12]
Antihypertensive Action [1]: -113 mmHg

COC(=O)C1=C(C)NC(C)=C(C(=O)OCC2(CN(C)Cc3ccccc3)CCCCC2)C1c1cc([N+](=O)[O-])ccc1F (racemic) [Example 8]
Antihypertensive Action [1]: -140 mmHg

COC(=O)C1=C(C)NC(C)=C(C(=O)OCC2(CN3CCOCC3)CCCCC2)C1c1cccc([N+](=O)[O-])c1 (single isomer, unassigned) [Example 23]
Antihypertensive Action [1]: -87 mmHg

COC(=O)C1=C(C)NC(C)=C(C(=O)OCC2(CN(C)Cc3ccccc3)CCCCC2)C1c1cccc([N+](=O)[O-])c1.Cl (racemic) [Example 1, 1,4-dihydro-2,6-dimethyl-4-(3'-nitrophenyl)-3,5-pyridinedicarboxylic acid 1-(N-benzyl-N-methylaminomethyl)cyclohexylmethyl methyl ester hydrochloride]
Antihypertensive Action [1]: -131 mmHg

COC(=O)C1=C(C)NC(C)=C(C(=O)OCC2(CN(C)Cc3ccc(F)cc3)CCCCC2)C1c1cccc([N+](=O)[O-])c1 (racemic) [Example 15]
Antihypertensive Action [1]: -114 mmHg
